Experimental data: patent US12589143B2, “Human anti-PD-L1 peptide vaccines and methods of their use” (priority 2019, dated 2026)
Where no end group is shown, it is not given here.

Tested on: MVF-PD-L1 peptide immunogen
Test: Immunogenicity in Balb/c mice, experiment 2 (CT26/HER-2): ELISA of sera vs each MVF-PD-L1 peptide immunogen
Format: in vivo
Conditions: Balb/c mice
Procedure: Immunogenicity of MVF-PD-L1 B-cell epitopes. New Zealand White rabbits were immunized with 1 mg of each MVF-peptide immunogens dissolved in dd H2O emulsified (1:1) in Montanide ISA 720 vehicle (Seppic) with 333 μg of N-acetylglucosamine-3yl-acetyl-1-alanyl-d-isoglutamine (nor-MDP). Rabbits were boosted with the same doses at 3-week's intervals. Blood was collected via the central auricular artery in rabbits. Blood was collected weekly (1Y+3, 2Y+1, 2Y+2,2Y+3, 3Y+1, 3Y+2 and sera tested for antibody titers by ELISA using the immunogens MVF-PD-L1 peptides. Sera (terminal) from rabbit (3Y+3) immunized with MVF-PD-1 peptide immunogens were tested individually versus the immunogen by ELISA. 200 ng/well peptide were used in duplicates to coat the ELISA plates. Titers are defined as the highest dilution of sera with an absorbance value of 0.2 after subtracting the blank. […]
In order to verify the efficacy of the PD-L1 epitope vaccines in vivo in the CT26/HER-2 carcinoma cell line, Balb/c mice (10 mice/group) were immunized with 100 μg each of MVF-PD-L1 (36-53), MVF-PD-L1 (50-67), MVF-PD-L1 (95-112) and MVF-PD-L1 (130-147) emulsified with nor-MDP and Montanide 720 (1:1 ratio) SCHEME 2A (FIG. 15A). As detailed in SCHEME 2A-D (FIGS. 15A, 15B, 15C, and 15D), mice were immunized 3 times at 3 weeks intervals. […] All PD-L1 epitopes elicited high titers of PD-L1 anti-peptide antibodies by ELISA. […] We also investigated the combination of PD-1(92-110) with PD-L1-95.
For each peptide, vaccine antibodies were raised in New Zealand white rabbits, purchased from Charles River Laboratories (Wilmington, MA, USA). Rabbits were immunized with 1 mg of MVF chimeric peptide emulsified in Montanide ISA 720 (Seppic, Paris, France) and boosted 3 times at three week intervals. For mouse experiments, mice, 6-8 weeks old, were immunized with 0.1 mg of peptide emulsified in ISA720 (1:1 ratio). Mice were boosted with the respective doses at 3-week intervals. Blood was then collected and sera were tested for antibody titers. Sera were collected weekly and peptide vaccine antibodies were purified by affinity chromatography using a protein A/G column and the concentration was measured using Spectrophometer. All experiments were performed in accordance with the U.S. Public Health Service Policy on Humane Care and Use of Laboratory animals and approved by the Ohio State University Institutional Animals Care and Use Committee, detailed in the accepted protocol.
6-8 weeks old BALB/c mice (Charles River, Wilmington, MA) were used as standard animal models. Mouse CT26 colon carcinoma cell line was purchased from American Type Culture Collection Cells and were regularly cultured in RPMI1640 medium containing 10% FBS. CT26/HER2 cells were kindly provided by M. Penichet. Vaccines were dissolved in sterile water and emulsified in Montanide ISA 720 (1:1). Female Balb/c mice (Charles River Laboratories) at the age of 6-8 weeks were immunized three times at 3-week intervals with 100 μg of each peptide vaccine, and 2 weeks after the third immunization, the mice were challenged with CT26 and/or CT26/HER-2 tumor cells, which were implanted subcutaneously (s.c) on the right flank (1×10^5 per mouse). 200 μg of rat α-mouse PD-L1 mAb 10F.9G2 (Bio X Cell, West Lebanon, NH) were administered intraperitoneally (i.p.), twice weekly following tumor inoculation in the control group. Mice were monitored and scored for the formation of palpable tumors on a daily basis and sacrificed if tumors became necrotic or exceeded the predetermined size of 2,000 mm^3. Tumor volumes were measured in cubic millimeters with calipers and calculated with the following formula: A×B^2×0.5, where A is the largest diameter, and B is the widest point perpendicular to length. During immunization, blood was drawn weekly and used in ELISA to monitor antibody titers.

| Sequence | Immunogenicity (titers) 1′ Conc. 1: (bleed 1Y + 3) | Immunogenicity (titers) 1′ Conc. 1: (bleed 2Y + 1) | Immunogenicity (titers) 1′ Conc. 1: (bleed 2Y + 2) | Immunogenicity (titers) 1′ Conc. 1: (bleed 2Y + 3) | Immunogenicity (titers) 1′ Conc. 1: (bleed 3Y + 1) | Immunogenicity (titers) 1′ Conc. 1: (bleed 3Y + 2) | Immunogenicity (titers) 1′ Conc. 1: (bleed 3Y + 3) |
| --- | --- | --- | --- | --- | --- | --- | --- |
| KLLSLIKGVIVHRLEGVEGPSLFVHGEEDLKVQHSSYRQR (KLLSLIKGVIVHRLEGVEGPSLFVHGEEDLKVQHSSYRQR-NH2) [PD-L1(50)] | 6400 | 25600 | 128000 | 128000 | 128000 | 256000 | 256000 |
| KLLSLIKGVIVHRLEGVEGPSLLIVYWEMEDKNIIQFVHG (KLLSLIKGVIVHRLEGVEGPSLLIVYWEMEDKNIIQFVHG-NH2) [PD-L1(36)] | 0 | 1600 | 4000 | 32000 | 16000 | 32000 | 16000 |
